# From patent US20070049564A1 (Wyeth, priority 2005, published 2007)
# Like-named read-outs stand apart in the source and are kept apart here.
# Columns and labels:
# Experiment in all cases: MIC, broth microdilution
# S. pneumoniae+ GC 4465 = settings: Streptococcus pneumoniae
# S. aureus GC 6335 = settings: Staphylococcus aureus
# S. pyogenes GC 4563 = settings: Streptococcus pyogenes
# E. coli GC 2232 = settings: Escherichia coli
# S. aureus GC 1131 = settings: Staphylococcus aureus
# S. agalactiae GC 4564 = settings: Streptococcus agalactiae
# E. faecalis GC 2267 = settings: Enterococcus faecalis
# E. coli GC 2236 = settings: Escherichia coli
# P. aeruginosa GC 2214 = settings: Pseudomonas aeruginosa
# E. coli GC 2203 = settings: Escherichia coli
# E. coli GC 2234 = settings: Escherichia coli
# E. coli GC 2272 = settings: Escherichia coli
# E. coli GC 4559 = settings: Escherichia coli
# E. faecalis GC 4555 = settings: Enterococcus faecalis
# E. coli GC 2271 = settings: Escherichia coli
# S. pneumoniae* GC 4465 = settings: Streptococcus pneumoniae
# S. epidermidis GC 4935 = settings: Staphylococcus epidermidis
# E. faecalis GC 2265 = settings: Enterococcus faecalis
# E. coli GC 3226 = settings: Escherichia coli
# [1] = read-out: MINIMAL INHIBITORY CONCENTRATION MIC, Human Serum
# [2] = read-out: MINIMAL INHIBITORY CONCENTRATION MIC, Mouse Serum
# [3] = read-out: MINIMAL INHIBITORY CONCENTRATION MIC, Water
smiles,measurement,setting,value
"COC(=O)N(CC(=O)Nc1cc(N(C)C)c2c(c1O)C(=O)C1=C(O)[C@]3(O)C(=O)C(C(N)=O)=C(O)[C@@H](N(C)C)[C@@H]3C[C@@H]1C2)C(C)(C)C [Example 60, methyl 2-{[(5aR,6aS,7S,10aS)-9-(aminocarbonyl)-4,7-bis(dimethylamino)-1,8,10a,11-tetrahydroxy-10,12-dioxo-5,5a,6,6a,7,10,10a,12-octahydrotetracen-2-yl]amino}-2-oxoethyl(tert-butyl)carbamate]",MIC,S. pneumoniae+ GC 4465; [1],2 µg/mL
same,MIC,S. pneumoniae+ GC 4465; [2],4 µg/mL
same,MIC,S. pneumoniae+ GC 4465; [3],4 µg/mL
same,MIC,"S. aureus GC 6335; GC6335, read-out: MINIMAL INHIBITORY CONCENTRATION MIC, Human Serum",8 µg/mL
same,MIC,"S. aureus GC 6335; GC6335, read-out: MINIMAL INHIBITORY CONCENTRATION MIC, Mouse Serum",8 µg/mL
same,MIC,"S. aureus GC 6335; GC6335, read-out: MINIMAL INHIBITORY CONCENTRATION MIC, Water",8 µg/mL
same,MIC,"S. pyogenes GC 4563; GC4563, read-out: MINIMAL INHIBITORY CONCENTRATION MIC, Human Serum",0.5 µg/mL
same,MIC,"S. pyogenes GC 4563; GC4563, read-out: MINIMAL INHIBITORY CONCENTRATION MIC, Mouse Serum",1 µg/mL
same,MIC,"S. pyogenes GC 4563; GC4563, read-out: MINIMAL INHIBITORY CONCENTRATION MIC, Water",2 µg/mL
same,MIC,"E. coli GC 2232; GC2232, read-out: MINIMAL INHIBITORY CONCENTRATION MIC, Human Serum",> 64 µg/mL
same,MIC,"E. coli GC 2232; GC2232, read-out: MINIMAL INHIBITORY CONCENTRATION MIC, Mouse Serum",> 64 µg/mL
same,MIC,"E. coli GC 2232; GC2232, read-out: MINIMAL INHIBITORY CONCENTRATION MIC, Water",> 64 µg/mL
same,MIC,"S. aureus GC 1131; GC1131, read-out: MINIMAL INHIBITORY CONCENTRATION MIC, Human Serum",2 µg/mL
same,MIC,"S. aureus GC 1131; GC1131, read-out: MINIMAL INHIBITORY CONCENTRATION MIC, Mouse Serum",2 µg/mL
same,MIC,"S. aureus GC 1131; GC1131, read-out: MINIMAL INHIBITORY CONCENTRATION MIC, Water",8 µg/mL
same,MIC,"S. agalactiae GC 4564; GC4564, read-out: MINIMAL INHIBITORY CONCENTRATION MIC, Human Serum",4 µg/mL
same,MIC,"S. agalactiae GC 4564; GC4564, read-out: MINIMAL INHIBITORY CONCENTRATION MIC, Mouse Serum",4 µg/mL
same,MIC,"S. agalactiae GC 4564; GC4564, read-out: MINIMAL INHIBITORY CONCENTRATION MIC, Water",4 µg/mL
same,MIC,"E. faecalis GC 2267; GC2267, read-out: MINIMAL INHIBITORY CONCENTRATION MIC, Human Serum",4 µg/mL
same,MIC,"E. faecalis GC 2267; GC2267, read-out: MINIMAL INHIBITORY CONCENTRATION MIC, Mouse Serum",8 µg/mL
same,MIC,"E. faecalis GC 2267; GC2267, read-out: MINIMAL INHIBITORY CONCENTRATION MIC, Water",8 µg/mL
same,MIC,"E. coli GC 2236; GC2236, read-out: MINIMAL INHIBITORY CONCENTRATION MIC, Human Serum",> 64 µg/mL
same,MIC,"E. coli GC 2236; GC2236, read-out: MINIMAL INHIBITORY CONCENTRATION MIC, Mouse Serum",> 64 µg/mL
same,MIC,"E. coli GC 2236; GC2236, read-out: MINIMAL INHIBITORY CONCENTRATION MIC, Water",> 64 µg/mL
same,MIC,"P. aeruginosa GC 2214; GC2214, read-out: MINIMAL INHIBITORY CONCENTRATION MIC, Human Serum",> 64 µg/mL
same,MIC,"P. aeruginosa GC 2214; GC2214, read-out: MINIMAL INHIBITORY CONCENTRATION MIC, Mouse Serum",> 64 µg/mL
same,MIC,"P. aeruginosa GC 2214; GC2214, read-out: MINIMAL INHIBITORY CONCENTRATION MIC, Water",> 64 µg/mL
same,MIC,"E. coli GC 2203; GC2203, read-out: MINIMAL INHIBITORY CONCENTRATION MIC, Human Serum",> 64 µg/mL
same,MIC,"E. coli GC 2203; GC2203, read-out: MINIMAL INHIBITORY CONCENTRATION MIC, Mouse Serum",> 64 µg/mL
same,MIC,"E. coli GC 2203; GC2203, read-out: MINIMAL INHIBITORY CONCENTRATION MIC, Water",> 64 µg/mL
same,MIC,"E. coli GC 2234; GC2234, read-out: MINIMAL INHIBITORY CONCENTRATION MIC, Human Serum",> 64 µg/mL
same,MIC,"E. coli GC 2234; GC2234, read-out: MINIMAL INHIBITORY CONCENTRATION MIC, Mouse Serum",> 64 µg/mL
same,MIC,"E. coli GC 2234; GC2234, read-out: MINIMAL INHIBITORY CONCENTRATION MIC, Water",> 64 µg/mL
same,MIC,"E. coli GC 2272; GC2272, read-out: MINIMAL INHIBITORY CONCENTRATION MIC, Human Serum",32 µg/mL
same,MIC,"E. coli GC 2272; GC2272, read-out: MINIMAL INHIBITORY CONCENTRATION MIC, Mouse Serum",32 µg/mL
same,MIC,"E. coli GC 2272; GC2272, read-out: MINIMAL INHIBITORY CONCENTRATION MIC, Water",64 µg/mL
same,MIC,"E. coli GC 4559; GC4559, read-out: MINIMAL INHIBITORY CONCENTRATION MIC, Human Serum",> 64 µg/mL
same,MIC,"E. coli GC 4559; GC4559, read-out: MINIMAL INHIBITORY CONCENTRATION MIC, Mouse Serum",> 64 µg/mL
same,MIC,"E. coli GC 4559; GC4559, read-out: MINIMAL INHIBITORY CONCENTRATION MIC, Water",> 64 µg/mL
same,MIC,"E. faecalis GC 4555; GC4555, read-out: MINIMAL INHIBITORY CONCENTRATION MIC, Human Serum",2 µg/mL
same,MIC,"E. faecalis GC 4555; GC4555, read-out: MINIMAL INHIBITORY CONCENTRATION MIC, Mouse Serum",4 µg/mL
same,MIC,"E. faecalis GC 4555; GC4555, read-out: MINIMAL INHIBITORY CONCENTRATION MIC, Water",4 µg/mL
same,MIC,"E. coli GC 2271; GC2271, read-out: MINIMAL INHIBITORY CONCENTRATION MIC, Human Serum",64 µg/mL
same,MIC,"E. coli GC 2271; GC2271, read-out: MINIMAL INHIBITORY CONCENTRATION MIC, Mouse Serum",64 µg/mL
same,MIC,"E. coli GC 2271; GC2271, read-out: MINIMAL INHIBITORY CONCENTRATION MIC, Water",> 64 µg/mL
same,MIC,S. pneumoniae* GC 4465; [1],1 µg/mL
same,MIC,S. pneumoniae* GC 4465; [2],1 µg/mL
same,MIC,S. pneumoniae* GC 4465; [3],2 µg/mL
same,MIC,"S. epidermidis GC 4935; GC4935, read-out: MINIMAL INHIBITORY CONCENTRATION MIC, Human Serum",8 µg/mL
same,MIC,"S. epidermidis GC 4935; GC4935, read-out: MINIMAL INHIBITORY CONCENTRATION MIC, Mouse Serum",8 µg/mL
same,MIC,"S. epidermidis GC 4935; GC4935, read-out: MINIMAL INHIBITORY CONCENTRATION MIC, Water",16 µg/mL
same,MIC,"E. faecalis GC 2265; GC2265, read-out: MINIMAL INHIBITORY CONCENTRATION MIC, Human Serum",4 µg/mL
same,MIC,"E. faecalis GC 2265; GC2265, read-out: MINIMAL INHIBITORY CONCENTRATION MIC, Mouse Serum",8 µg/mL
same,MIC,"E. faecalis GC 2265; GC2265, read-out: MINIMAL INHIBITORY CONCENTRATION MIC, Water",8 µg/mL
same,MIC,"E. coli GC 3226; GC3226, read-out: MINIMAL INHIBITORY CONCENTRATION MIC, Human Serum",> 64 µg/mL
same,MIC,"E. coli GC 3226; GC3226, read-out: MINIMAL INHIBITORY CONCENTRATION MIC, Mouse Serum",> 64 µg/mL
same,MIC,"E. coli GC 3226; GC3226, read-out: MINIMAL INHIBITORY CONCENTRATION MIC, Water",> 64 µg/mL
